Counter-ions that a name gives are not always drawn.

In this test the target is T1, mouse semaphorin 3A (Sema3A) (Mus musculus, UniProt O08665).
T1 sequence (O08665 21-772): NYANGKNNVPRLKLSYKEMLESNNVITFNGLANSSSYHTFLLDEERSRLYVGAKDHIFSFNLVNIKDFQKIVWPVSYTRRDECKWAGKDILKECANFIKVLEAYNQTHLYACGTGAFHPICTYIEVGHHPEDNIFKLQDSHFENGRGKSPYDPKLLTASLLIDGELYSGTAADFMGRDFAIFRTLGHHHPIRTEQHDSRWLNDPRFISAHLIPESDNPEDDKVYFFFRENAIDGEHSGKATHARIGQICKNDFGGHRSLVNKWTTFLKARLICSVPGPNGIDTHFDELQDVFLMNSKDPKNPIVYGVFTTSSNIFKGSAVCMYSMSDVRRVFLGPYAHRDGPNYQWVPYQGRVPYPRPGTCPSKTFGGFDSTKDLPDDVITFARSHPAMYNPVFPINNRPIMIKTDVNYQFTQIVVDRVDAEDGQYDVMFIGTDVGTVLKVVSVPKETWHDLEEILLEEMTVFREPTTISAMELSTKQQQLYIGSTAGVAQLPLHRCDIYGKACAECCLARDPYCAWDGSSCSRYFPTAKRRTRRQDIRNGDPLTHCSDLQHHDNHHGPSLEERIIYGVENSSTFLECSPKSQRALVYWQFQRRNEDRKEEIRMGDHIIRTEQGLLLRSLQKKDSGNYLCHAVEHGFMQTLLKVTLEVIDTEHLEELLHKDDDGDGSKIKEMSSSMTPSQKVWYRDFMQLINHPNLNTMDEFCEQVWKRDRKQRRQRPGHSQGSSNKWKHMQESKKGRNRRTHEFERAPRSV
Put plainly: Inhibitory activity for the collapse activity caused by Sema3A (growth cone collapse assay, Test 1). The following applies: chick embryo dorsal root ganglion, 3 units/mL mouse Sema3A, smaller value = more potent inhibition, read-out: residual ratio (%) of Sema3A activity (collapse assay); for remaining activity at 1 µM: 1 μM test compound; for remaining activity at 3 µM: 3 μM test compound; for remaining activity at 10 µM: 10 μM test compound. It counts as cell-based. How it is done:
Inhibitory Activity for the Collapse Activity Caused by Sema3A
96 well-plate (SUMITOMO BAKELITE CO., LTD.) which was beforehand coated with polylysine was further coated with laminin (10 μL laminin, at room temperature, for 1 hour). To each well was added 100 μL of a medium (F12 medium containing 10% fetal bovine serum, 20 ng/mL NGF, 100 unit/mL penicillin, and 100 μg/mL streptomycin). Dorsal root ganglion harvested from 7-8 day-old chick embryo was inoculated thereto, and the culture medium was cultivated under the condition of 5% CO2 and 37° C. for 16-20 hours. And then, each test compound in various concentrations was added to the medium, each test medium was cultivated for 30 minutes, 3 units/mL mouse semaphorin 3A (Sema3A) was added to each medium, and then each test medium was cultivated for more 30 minutes. Then, glutaraldehyde was added to the medium, in which the final concentration of glutaraldehyde was 1%. The medium was left to stand at room temperature for 15 minutes to make the tissue fragment fixed, and the ratio of the retracted growth cone was measured under a microscope.

Take `Cn1cc(-c2coc3cc(O)c(O)c(C(=O)O)c3c2=O)c(=O)c2cc(O)c(O)cc21` [Example 1, 3-(6,7-Dihydroxy-1-methyl-4-oxo-1,4-dihydroquinolin-3-yl)-6,7-dihydroxy-4-oxo-4H-chromene-5-carboxylic acid]: the remaining activity at 1 µM came out at 2% and the remaining activity at 3 µM was found to be 4.6%.
Take `Cn1cc(-c2coc3cc(O)c(O)c(C(=O)OCc4cn(CC(=O)N[C@@H](CCCNC(=N)N)C(=O)O)nn4)c3c2=O)c(=O)c2cc(O)c(O)cc21` [Example 4, N^2-({4-[({[3-(6,7-Dihydroxy-1-methyl-4-oxo-1,4-dihydroquinolin-3-yl)-6,7-dihydroxy-4-oxo-4H-chromen-5-yl]carbonyl}oxy)methyl]-1H-1,2,3-triazol-1-yl}acetyl)-L-arginine trifluoroacetate]: the remaining activity at 1 µM was found to be 6%.
With `Cn1cc(-c2coc3cc(O)c(O)c(C(=O)N[C@@H](CCC(=O)O)C(=O)O)c3c2=O)c(=O)c2cc(O)c(O)cc21` [Example 5, N-{[3-(6,7-Dihydroxy-1-methyl-4-oxo-1,4-dihydroquinolin-3-yl)-6,7-dihydroxy-4-oxo-4H-chromen-5-yl]carbonyl}-L-glutamic acid], the remaining activity at 1 µM worked out at 5.1% and the remaining activity at 3 µM was 3.3%.
On to `Cc1c(-c2coc3cc(O)c(O)c(C(=O)O)c3c2=O)c(=O)c2cc(O)c(O)cc2n1C` [Example 7, 3-(6,7-Dihydroxy-1,2-dimethyl-4-oxo-1,4-dihydroquinolin-3-yl)-6,7-dihydroxy-4-oxo-4H-chromene-5-carboxylic acid], for which the remaining activity at 3 µM is under 70% and the remaining activity at 10 µM was under 40%.
As for `Cc1c(-c2coc3cc(O)c(O)c(C(=O)OCc4cn(CC(=O)N[C@@H](CCC(=O)O)C(=O)O)nn4)c3c2=O)c(=O)c2cc(O)c(O)cc2n1C` [Example 8, N-({4-[({[3-(6,7-Dihydroxy-1,2-dimethyl-4-oxo-1,4-dihydroquinolin-3-yl)-6,7-dihydroxy-4-oxo-4H-chromen-5-yl]carbonyl}oxy)methyl]-1H-1,2,3-triazol-1-yl}acetyl)-L-glutamic acid], the remaining activity at 1 µM was determined as 27.3% and the remaining activity at 3 µM was 21%.
Consider `O=C(O)c1c(O)c(O)cc2occ(-c3cc4cc(O)c(O)cc4oc3=O)c(=O)c12` [Example 9, 6,6′,7,7′-Tetrahydroxy-2,4′-dioxo-2H,4′H-3,3′-bichromene-5′-carboxylic acid], for which the remaining activity at 1 µM turned out to be 3.4% and the remaining activity at 3 µM was determined as 7.3%.
As to `O=C(O)CC[C@H](NC(=O)Cn1cc(COC(=O)c2c(O)c(O)cc3occ(-c4cc5cc(O)c(O)cc5oc4=O)c(=O)c23)nn1)C(=O)O` [Example 11, N-{[4-({[(6,6′,7,7′-Tetrahydroxy-2,4′-dioxo-2H,4′H-3,3′-bichromen-5′-yl)carbonyl]oxy}methyl)-1H-1,2,3-triazol-1-yl]acetyl}-L-glutamic acid], the remaining activity at 1 µM was determined as 7.9%.
Still for that read-out and setting: the figure for `N=C(N)NCCC[C@H](NC(=O)Cn1cc(COC(=O)c2c(O)c(O)cc3occ(-c4cc5cc(O)c(O)cc5oc4=O)c(=O)c23)nn1)C(=O)O` [Example 12, N^2-{[4-({[(6,6′,7,7′-Tetrahydroxy-2,4′-dioxo-2H,4′H-3,3′-bichromen-5′-yl)carbonyl]oxy}methyl)-1H-1,2,3-triazol-1-yl]acetyl}-L-arginine trifluoroacetate] is 65.5%.
In the case of `Cn1c(=O)c(-c2coc3cc(O)c(O)c(C(=O)O)c3c2=O)cc2cc(O)c(O)cc21` [Example 13, 3-(6,7-Dihydroxy-1-methyl-2-oxo-1,2-dihydroquinolin-3-yl)-6,7-dihydroxy-4-oxo-4H-chromene-5-carboxylic acid], the remaining activity at 10 µM was under 70%.
Consider `Cn1c(=O)c(-c2coc3cc(O)c(O)c(C(=O)OCc4cn(CC(=O)N[C@@H](CCC(=O)O)C(=O)O)nn4)c3c2=O)cc2cc(O)c(O)cc21` [Example 14, N-({4-[({[3-(6,7-Dihydroxy-1-methyl-2-oxo-1,2-dihydroquinolin-3-yl)-6,7-dihydroxy-4-oxo-4H-chromen-5-yl]carbonyl}oxy)methyl]-1H-1,2,3-triazol-1-yl}acetyl)-L-glutamic acid], for which the remaining activity at 1 µM is 78.8% and the remaining activity at 3 µM was determined as 6.1%.
The matching figures for `Cc1c(-c2coc3cc(O)c(O)c(C(=O)OCc4cn(CC(=O)N[C@@H](CCC(=O)O)C(=O)O)nn4)c3c2=O)c(=O)n(C)c2cc(O)c(O)cc12` [Example 15, N-({4-[({[3-(6,7-Dihydroxy-1,4-dimethyl-2-oxo-1,2-dihydroquinolin-3-yl)-6,7-dihydroxy-4-oxo-4H-chromen-5-yl]carbonyl}oxy)methyl]-1H-1,2,3-triazol-1-yl}acetyl)-L-glutamic acid]: 5.4% and 0%.
`Cc1nc2cc(O)c(O)cn2c(=O)c1-c1coc2cc(O)c(O)c(C(=O)O)c2c1=O` [Example 16, 3-(7,8-Dihydroxy-2-methyl-4-oxo-4H-pyrido[1,2-a]pyrimidin-3-yl)-6,7-dihydroxy-4-oxo-4H-chromene-5-carboxylic acid]: the remaining activity at 1 µM was 15.9% and the remaining activity at 3 µM came out at 2.2%.
The matching figures for `Cc1nc2cc(O)c(O)cn2c(=O)c1-c1coc2cc(O)c(O)c(C(=O)OCc3cn(CC(=O)N[C@@H](CCC(=O)O)C(=O)O)nn3)c2c1=O` [Example 17, N-({4-[({[3-(7,8-Dihydroxy-2-methyl-4-oxo-4H-pyrido[1,2-a]pyrimidin-3-yl)-6,7-dihydroxy-4-oxo-4H-chromen-5-yl]carbonyl}oxy)methyl]-1H-1,2,3-triazol-1-yl}acetyl)-L-glutamic acid]: 90.1% and 3.3%.
For `Cc1nc2cc(O)c(O)cn2c(=O)c1-c1coc2cc(O)c(O)c(C(=O)OCC(=O)N[C@@H](CCC(=O)O)C(=O)O)c2c1=O` [Example 18, N-[({[3-(7,8-Dihydroxy-2-methyl-4-oxo-4H-pyrido[1,2-a]pyrimidin-3-yl)-6,7-dihydroxy-4-oxo-4H-chromen-5-yl]carbonyl}oxy)acetyl]-L-glutamic acid] the same measures were 21.8% and 6.7%.
Regarding `Cn1cc(-c2coc3cc(O)c(O)c(C(=O)OCC(O)CO)c3c2=O)c(=O)c2cc(O)c(O)cc21` (stereo not shown) [Example 23, 2,3-Dihydroxypropyl 3-(6,7-dihydroxy-1-methyl-4-oxo-1,4-dihydroquinolin-3-yl)-6,7-dihydroxy-4-oxo-4H-chromene-5-carboxylate], the remaining activity at 1 µM is under 70% and the remaining activity at 3 µM was under 10%.
On to `Cn1cc(-c2coc3cc(O)c(O)c(C(=O)OC[C@H]4CC[C@H](N)CC4)c3c2=O)c(=O)c2cc(O)c(O)cc21` [Example 24, (trans-4-Aminocyclohexyl)methyl 3-(6,7-dihydroxy-1-methyl-4-oxo-1,4-dihydroquinolin-3-yl)-6,7-dihydroxy-4-oxo-4H-chromene-5-carboxylate hydrochloride], for which the remaining activity at 1 µM is under 70% and the remaining activity at 3 µM was under 10%.
For the compound `Cn1cc(-c2coc3cc(O)c(O)c(C(=O)OCC[C@H](N)C(=O)O)c3c2=O)c(=O)c2cc(O)c(O)cc21` [Example 27, O-{[3-(6,7-Dihydroxy-1-methyl-4-oxo-1,4-dihydroquinolin-3-yl)-6,7-dihydroxy-4-oxo-4H-chromen-5-yl]carbonyl}-L-homoserine hydrochloride], the remaining activity at 1 µM is under 10% and the remaining activity at 3 µM was under 10%.
Consider `Cn1cc(-c2coc3cc(O)c(O)c(C(=O)OCC(N)=O)c3c2=O)c(=O)c2cc(O)c(O)cc21` [Example 30, 2-Amino-2-oxoethyl 3-(6,7-dihydroxy-1-methyl-4-oxo-1,4-dihydroquinolin-3-yl)-6,7-dihydroxy-4-oxo-4H-chromene-5-carboxylate], for which the remaining activity at 3 µM is under 40%.

The values above are taken from patent US11440905B2, “Biheterocyclic compound” (SUMITOMO PHARMA CO., LTD., priority 2016, dated 2022).
